Experimental findings from patent publication US10125098B2, “Therapeutic compounds and methods of use thereof” (GENENTECH, INC., priority 2014, dated 2018) are described below.

One data set concerns the target T1, hNav1.7 (Homo sapiens, UniProt Q15858).
T1 construct: expressed in transfected cells
As to the kind of experiment: Tritiated compound binding (LBA) to membranes from cells expressing hNav1.7 and the β1 subunit, competitive binding. The conditions noted are these: competitive binding vs 100 pM [3H]compound, 18 h, room temperature, membranes with hNav1.7 and β1 subunit. The method in brief: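 Membranes from cells expressing hNav1.7 with β1 were incubated 18 h at room temperature with 100 pM tritiated formula (I) compound and increasing test compound, in 100 mM NaCl, 20 mM Tris HCl pH 7.4, 0.01% BSA.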

The next data set has as its target T2, NaV1.5 (Homo sapiens, UniProt Q14524).
T2 construct: permanently transfected with an expression vector containing the full-length cDNA coding for the desired human sodium channel α-subunit; expressed in transfected cells; host or cells: HEK-293
Nature of the data set: Patch voltage clamp electrophysiology assay (EP), NaV1.5. It counts as cell-based. An outline of the steps: (§1)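 HEK-293 cells stably expressing human α-subunit with β1; whole-cell patch clamp (PatchXpress or manual), ambient temperature, pH 7.4 external NaCl, CsF internal. Held at −60 mV (full inactivation), stepped to −150 mV for 20 ms, then test pulse; percent current decrease after compound wash-on taken as block.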

In another data set the target is T3, human NaV1.7 (Homo sapiens, UniProt Q15858).
T3 construct: permanently transfected with an expression vector containing the full-length cDNA coding for the desired human sodium channel α-subunit; expressed in transfected cells; host or cells: HEK-293
Nature of the data set: Patch voltage clamp electrophysiology assay (EP), NaV1.7. The conditions noted are these: HEK-293 cells stably expressing NaV1.7 with β1 subunit; whole-cell patch clamp, membrane potential −60 mV (inactivated state). It counts as cell-based. The method in brief: as §1

The mark [1] stands for this setting: human, HEK-293 cells stably expressing human NaV1.5 with β1 subunit, pH 7.4, HEK-293 cells stably expressing NaV1.5 with β1 subunit, whole-cell patch clamp, membrane potential −60 mV (inactivated state).
The mark [2] stands for this setting: HEK-293 cells stably expressing NaV1.5 with β1 subunit, whole-cell patch clamp, membrane potential −60 mV (inactivated state), read-out: Nav1.5.

pIC50: −log10 of the molar value. Counter-ions that a name gives are not always drawn. Like-named read-outs stand apart in the source and are kept apart here.

T2 sequence (Q14524 whole entry): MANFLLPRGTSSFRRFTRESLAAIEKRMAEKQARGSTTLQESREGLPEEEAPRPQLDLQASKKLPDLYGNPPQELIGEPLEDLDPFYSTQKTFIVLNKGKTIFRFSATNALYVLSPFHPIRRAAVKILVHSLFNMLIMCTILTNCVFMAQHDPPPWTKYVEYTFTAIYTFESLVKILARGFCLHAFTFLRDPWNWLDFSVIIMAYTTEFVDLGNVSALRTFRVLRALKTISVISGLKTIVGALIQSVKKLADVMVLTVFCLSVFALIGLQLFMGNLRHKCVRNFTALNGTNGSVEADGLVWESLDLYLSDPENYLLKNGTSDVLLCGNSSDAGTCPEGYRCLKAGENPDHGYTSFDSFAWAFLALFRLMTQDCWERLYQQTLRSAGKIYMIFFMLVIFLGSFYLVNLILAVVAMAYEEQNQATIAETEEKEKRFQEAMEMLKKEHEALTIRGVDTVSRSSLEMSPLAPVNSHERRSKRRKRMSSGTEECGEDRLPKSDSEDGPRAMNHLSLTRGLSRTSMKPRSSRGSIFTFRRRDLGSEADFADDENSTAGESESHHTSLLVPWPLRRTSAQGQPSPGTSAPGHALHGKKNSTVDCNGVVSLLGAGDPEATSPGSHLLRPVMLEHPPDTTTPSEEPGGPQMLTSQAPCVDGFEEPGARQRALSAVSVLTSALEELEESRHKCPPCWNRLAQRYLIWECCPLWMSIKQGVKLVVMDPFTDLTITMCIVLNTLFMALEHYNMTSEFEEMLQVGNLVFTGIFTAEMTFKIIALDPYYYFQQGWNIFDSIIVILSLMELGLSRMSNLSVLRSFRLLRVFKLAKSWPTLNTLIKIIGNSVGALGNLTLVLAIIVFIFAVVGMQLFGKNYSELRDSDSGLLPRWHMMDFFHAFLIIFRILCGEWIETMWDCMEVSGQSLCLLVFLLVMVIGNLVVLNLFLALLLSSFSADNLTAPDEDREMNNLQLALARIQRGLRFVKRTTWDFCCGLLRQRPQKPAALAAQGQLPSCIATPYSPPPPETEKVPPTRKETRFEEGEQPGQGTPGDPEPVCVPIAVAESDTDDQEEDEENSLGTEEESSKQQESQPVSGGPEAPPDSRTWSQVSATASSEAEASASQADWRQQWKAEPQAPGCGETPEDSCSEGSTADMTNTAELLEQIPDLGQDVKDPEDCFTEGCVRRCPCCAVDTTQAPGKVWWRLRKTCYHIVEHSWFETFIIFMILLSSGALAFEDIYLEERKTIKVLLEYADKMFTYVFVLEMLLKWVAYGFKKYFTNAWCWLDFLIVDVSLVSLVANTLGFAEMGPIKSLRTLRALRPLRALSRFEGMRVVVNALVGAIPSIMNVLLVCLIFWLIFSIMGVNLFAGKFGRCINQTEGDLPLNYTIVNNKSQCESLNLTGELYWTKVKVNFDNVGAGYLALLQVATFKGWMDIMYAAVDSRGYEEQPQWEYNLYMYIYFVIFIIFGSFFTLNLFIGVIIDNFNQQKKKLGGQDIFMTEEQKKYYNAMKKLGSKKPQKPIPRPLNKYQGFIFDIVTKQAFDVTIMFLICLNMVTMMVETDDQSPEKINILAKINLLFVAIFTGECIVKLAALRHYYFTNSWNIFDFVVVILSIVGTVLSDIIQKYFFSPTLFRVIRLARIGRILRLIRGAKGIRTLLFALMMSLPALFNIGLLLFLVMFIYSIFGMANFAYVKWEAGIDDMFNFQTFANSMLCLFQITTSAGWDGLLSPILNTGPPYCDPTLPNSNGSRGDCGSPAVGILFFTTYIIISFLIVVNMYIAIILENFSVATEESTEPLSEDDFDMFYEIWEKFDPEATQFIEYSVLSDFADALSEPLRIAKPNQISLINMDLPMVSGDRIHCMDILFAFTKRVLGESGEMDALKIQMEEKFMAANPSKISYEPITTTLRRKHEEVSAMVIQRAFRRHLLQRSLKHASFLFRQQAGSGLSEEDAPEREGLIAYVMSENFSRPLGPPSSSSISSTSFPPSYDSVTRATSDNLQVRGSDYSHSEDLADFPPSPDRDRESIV
T1 sequence (Q15858 1-1977 isoform Q15858-3): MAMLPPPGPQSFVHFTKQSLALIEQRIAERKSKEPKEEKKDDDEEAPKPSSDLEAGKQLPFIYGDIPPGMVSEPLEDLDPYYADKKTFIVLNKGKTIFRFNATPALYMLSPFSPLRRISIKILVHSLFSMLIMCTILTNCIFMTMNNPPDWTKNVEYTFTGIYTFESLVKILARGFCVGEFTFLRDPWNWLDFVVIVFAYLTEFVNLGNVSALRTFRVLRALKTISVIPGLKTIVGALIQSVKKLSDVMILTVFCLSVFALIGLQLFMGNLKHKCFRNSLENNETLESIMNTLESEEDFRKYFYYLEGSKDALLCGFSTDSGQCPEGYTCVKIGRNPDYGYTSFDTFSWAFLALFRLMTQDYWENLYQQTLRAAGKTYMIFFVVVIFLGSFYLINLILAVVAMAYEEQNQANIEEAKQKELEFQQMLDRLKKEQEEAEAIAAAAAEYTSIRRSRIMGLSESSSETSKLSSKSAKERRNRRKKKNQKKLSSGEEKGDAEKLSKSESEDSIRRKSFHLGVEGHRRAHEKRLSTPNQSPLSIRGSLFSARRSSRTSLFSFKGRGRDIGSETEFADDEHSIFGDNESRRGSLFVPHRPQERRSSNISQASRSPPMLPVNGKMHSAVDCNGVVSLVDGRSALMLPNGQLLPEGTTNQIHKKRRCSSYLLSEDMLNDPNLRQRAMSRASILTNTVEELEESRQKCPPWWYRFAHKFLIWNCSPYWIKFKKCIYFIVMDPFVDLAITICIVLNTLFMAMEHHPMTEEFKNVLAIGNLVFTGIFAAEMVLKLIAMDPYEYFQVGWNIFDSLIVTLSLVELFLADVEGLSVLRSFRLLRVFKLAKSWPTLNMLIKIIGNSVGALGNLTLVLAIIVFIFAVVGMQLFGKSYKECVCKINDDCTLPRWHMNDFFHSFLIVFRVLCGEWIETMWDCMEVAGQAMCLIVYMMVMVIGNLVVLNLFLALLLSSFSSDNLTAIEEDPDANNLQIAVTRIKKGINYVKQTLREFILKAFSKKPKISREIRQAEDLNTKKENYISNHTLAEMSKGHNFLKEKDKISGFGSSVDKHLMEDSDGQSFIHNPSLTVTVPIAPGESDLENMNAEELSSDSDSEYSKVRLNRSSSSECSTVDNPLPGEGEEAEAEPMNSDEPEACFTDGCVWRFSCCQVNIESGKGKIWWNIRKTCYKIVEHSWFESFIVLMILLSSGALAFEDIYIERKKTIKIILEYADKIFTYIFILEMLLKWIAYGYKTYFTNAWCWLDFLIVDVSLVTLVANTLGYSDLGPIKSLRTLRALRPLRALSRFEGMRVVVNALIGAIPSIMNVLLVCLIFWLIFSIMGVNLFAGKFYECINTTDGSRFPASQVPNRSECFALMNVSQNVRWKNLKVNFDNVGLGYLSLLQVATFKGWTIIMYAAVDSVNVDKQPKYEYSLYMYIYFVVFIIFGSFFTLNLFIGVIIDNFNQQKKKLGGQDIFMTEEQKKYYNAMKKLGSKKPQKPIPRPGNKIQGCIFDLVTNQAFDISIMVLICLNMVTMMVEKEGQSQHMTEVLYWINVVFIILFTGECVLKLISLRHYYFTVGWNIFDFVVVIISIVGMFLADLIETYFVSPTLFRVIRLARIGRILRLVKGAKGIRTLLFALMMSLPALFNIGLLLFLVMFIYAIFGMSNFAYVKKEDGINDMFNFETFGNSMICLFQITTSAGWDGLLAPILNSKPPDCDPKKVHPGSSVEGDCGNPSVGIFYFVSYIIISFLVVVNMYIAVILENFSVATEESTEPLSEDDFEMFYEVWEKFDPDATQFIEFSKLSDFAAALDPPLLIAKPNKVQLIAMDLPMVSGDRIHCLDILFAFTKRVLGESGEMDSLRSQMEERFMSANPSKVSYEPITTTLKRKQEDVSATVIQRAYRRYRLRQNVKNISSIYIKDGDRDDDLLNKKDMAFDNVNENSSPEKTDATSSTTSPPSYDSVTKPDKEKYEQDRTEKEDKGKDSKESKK
T1 sequence (Q07699 19-218 partner): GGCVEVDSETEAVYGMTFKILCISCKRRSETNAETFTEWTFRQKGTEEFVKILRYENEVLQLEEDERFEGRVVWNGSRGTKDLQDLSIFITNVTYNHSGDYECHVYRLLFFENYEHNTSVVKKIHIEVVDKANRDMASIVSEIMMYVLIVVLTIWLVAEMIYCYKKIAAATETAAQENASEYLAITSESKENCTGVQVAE
T3 sequence (Q15858 1-1977 isoform Q15858-3): as the sequence (Q15858 1-1977 isoform Q15858-3) above
T3 sequence (Q07699 19-218 partner): as the sequence (Q07699 19-218 partner) above

As for `O=C(O)[C@@H]1C[C@@H](F)CN1C(=O)c1cc(C2CC2)c(OCCC2CCN(Cc3cc(Cl)cc(Cl)c3)CC2)cc1F` [Example 94, (2S, 4R)-1-(5-cyclopropyl-4-(2-(1-(3,5-dichlorobenzyl)piperidin-4-yl)ethoxy)-2-fluorobenzoyl)-4-fluoropyrrolidine-2-carboxylic acid], the results for the pIC50 on hNav1.7, at NaV1.5 (setting [1]) and against human NaV1.7 were 7.00, at most 4.52 and 6.22, respectively.

For `O=C(O)C1CC=NN1C(=O)c1cc(C2CC2)c(OCC23CC4CC(CC(C4)C2)C3)cc1F` (stereo not drawn) [Example 96, 1-(4-(adamantan-1-ylmethoxy)-5-cyclopropyl-2-fluorobenzoyl)-4,5-dihydro-1H-pyrazole-5-carboxylic acid], the pIC50 on hNav1.7 is 6.42; against NaV1.5 (setting [1]), at most 4.52; on human NaV1.7, 5.82.

On to `CC(C)COc1ncc(Oc2cc(F)c(C(=O)N3CCC[C@H]3C(=O)O)cc2Cl)cc1Cl` [Example 97, 5-chloro-4-((5-chloro-6-isobutoxypyridin-3-yl)oxy)-2-fluorobenzoyl)-L-proline trifluoroacetic acid salt], for which the pIC50 on hNav1.7 is 6.36; at NaV1.5 (setting [1]), at most 4.52; against human NaV1.7, 6.24.

As for `CC(C)COc1ncc(Oc2cc(F)c(C(=O)N3CCC[C@H]3C(=O)O)cc2C2CC2)cc1C1CC1` [Example 98, (5-cyclopropyl-4-((5-cyclopropyl-6-isobutoxypyridin-3-yl)oxy)-2-fluorobenzoyl)-L-proline trifluoroacetic acid salt and (4-((5-chloro-6-isobutoxypyridin-3-yl)oxy)-5-cyclopropyl-2-fluorobenzoyl)-L-proline trifluoroacetic acid salt], the figures for the pIC50 at hNav1.7, against NaV1.5 (setting [1]) and on human NaV1.7 were 6.36, at most 4.52 and 6.13, respectively.

For `O=C(O)[C@@H]1CCCN1C(=O)c1cc(C2CC2)c(OCC2(F)CN(Cc3ccc(Cl)cc3C(F)(F)F)C2)cc1F` [Example 99, 1-(4-((1-(4-chloro-2-(trifluoromethyl)benzyl)-3-fluoroazetidin-3-yl)methoxy)-5-cyclopropyl-2-fluorobenzoyl)pyrrolidine-2-carboxylic acid trifluoroacetic acid salt], the pIC50 on hNav1.7 was 6.64; on NaV1.5 (setting [1]) it was at most 4.52; against human NaV1.7, 6.26.

Take `O=C(O)[C@@H]1C[C@@H](F)CN1C(=O)c1cc(C2CC2)c(OCC2CCN(Cc3cc(C(F)(F)F)cc(Cl)c3F)CC2)cc1F` [Example 101, (2S,4R)-1-(4-((1-(3-chloro-2-fluoro-5-(trifluoromethyl)benzyl)-piperidin-4-yl)methoxy)-5-cyclopropyl-2-fluorobenzoyl)-4-fluoropyrrolidine-2-carboxylic acid]: the pIC50 at hNav1.7 was 7.18; on NaV1.5 (setting [1]), at most 4.52; at human NaV1.7, 6.28.

For the compound `O=C(O)[C@@H]1C[C@@H](F)CN1C(=O)c1cc(C2CC2)c(OCC2(F)CCN(Cc3cc(C(F)(F)F)cc(Cl)c3F)CC2)cc1F` [Example 102, (2S,4R)-1-(4-((1-(3-chloro-2-fluoro-5-(trifluoromethyl)benzyl)-4-fluoropiperidin-4-yl)methoxy)-5-cyclopropyl-2-fluorobenzoyl)-4-fluoropyrrolidine-2-carboxylic acid], the pIC50 on hNav1.7 was 7.19; at NaV1.5 (setting [2]), 4.64; at human NaV1.7, 6.48.

For `O=C(O)[C@@H]1C[C@@H](F)CN1C(=O)c1cc(C2CC2)c(OCC2CCN(Cc3cc(C(F)(F)F)ccc3F)CC2)cc1F` [Example 103, (2S,4R)-1-(5-cyclopropyl-2-fluoro-4-((1-(2-fluoro-5-(trifluoromethyl)benzyl)-piperidin-4-yl)methoxy)benzoyl)-4-fluoropyrrolidine-2-carboxylic acid], the values for the pIC50 on hNav1.7, against NaV1.5 (setting [1]) and at human NaV1.7 were 7.48, at most 4.52 and 6.47, respectively.

On to `O=C(O)[C@@H]1C[C@@H](F)CN1C(=O)c1cc(C2CC2)c(OCC2CCN(Cc3ccc(Cl)c(F)c3)CC2)cc1F` [Example 104, (2S,4R)-1-(4-((1-(4-chloro-3-fluorobenzyl)piperidin-4-yl)methoxy)-5-cyclopropyl-2-fluorobenzoyl)-4-fluoropyrrolidine-2-carboxylic acid], for which the pIC50 was 6.89 on hNav1.7, at most 4.52 against NaV1.5 (setting [1]) and 5.80 against human NaV1.7.

Turning to `O=C(O)[C@@H]1C[C@@H](F)CN1C(=O)c1cc(C2CC2)c(OCC2CCN(Cc3cc(Cl)cc(OC(F)(F)F)c3)CC2)cc1F` [Example 105, (2S,4R)-1-(4-((1-(3-chloro-5-(trifluoromethoxy)benzyl)piperidin-4-yl)methoxy)-5-cyclopropyl-2-fluorobenzoyl)-4-fluoropyrrolidine-2-carboxylic acid], the values for the pIC50 on hNav1.7, at NaV1.5 (setting [2]) and on human NaV1.7 were 7.43, 4.66 and 6.66, respectively.

Turning to `O=C(O)[C@@H]1C[C@@H](F)CN1C(=O)c1cc(C2CC2)c(OCC2(F)CCN(Cc3cc(C(F)(F)F)ccc3Cl)CC2)cc1F` [Example 106, (2S,4R)-1-(4-((1-(2-chloro-5-(trifluoromethyl)benzyl)-4-fluoropiperidin-4-yl)methoxy)-5-cyclopropyl-2-fluorobenzoyl)-4-fluoropyrrolidine-2-carboxylic acid], the pIC50 at hNav1.7 was 7.57; on NaV1.5 (setting [2]) it was 4.68; on human NaV1.7, 6.89.

Turning to `CC(C)Nc1ccc(F)cc1CN1CCC(COc2cc(F)c(C(=O)N3C[C@H](F)C[C@H]3C(=O)O)cc2C2CC2)CC1` [Example 107, (2S,4R)-1-(5-cyclopropyl-2-fluoro-4-((1-(5-fluoro-2-(isopropylamino)benzyl)-piperidin-4-yl)methoxy)benzoyl)-4-fluoropyrrolidine-2-carboxylic acid], the pIC50 at hNav1.7 was 7.41; at NaV1.5 (setting [2]), 4.92; on human NaV1.7, 6.14.

Turning to `O=C(O)[C@@H]1C[C@@H](F)CN1C(=O)c1cc(C2CC2)c(OCC2CCN(Cc3cc(F)c(Cl)cc3Cl)CC2)cc1F` [Example 108, (2S,4R)-1-(5-cyclopropyl-4-((1-(2,4-dichloro-5-fluorobenzyl)piperidin-4-yl)methoxy)-2-fluorobenzoyl)-4-fluoropyrrolidine-2-carboxylic acid], the pIC50 on hNav1.7 was 7.77; at NaV1.5 (setting [2]) it was 5.02; on human NaV1.7 it was 6.66.

`CC(C)Oc1ncc(CN2CCC(F)(COc3cc(F)c(C(=O)N4C[C@H](F)C[C@H]4C(=O)O)cc3C3CC3)CC2)cc1Cl` [Example 109, (2S,4R)-1-(4-((1-((5-chloro-6-isopropoxypyridin-3-yl)methyl)-4-fluoropiperidin-4-yl)methoxy)-5-cyclopropyl-2-fluorobenzoyl)-4-fluoropyrrolidine-2-carboxylic acid]: the pIC50 was 7.29 on hNav1.7, at most 4.52 against NaV1.5 (setting [1]) and 6.05 at human NaV1.7.

Take `O=C(NC(C(=O)O)C1CCC1)c1cc(C2CC2)c(OCC2(F)CCN(Cc3cc(C(F)(F)F)ccc3Cl)CC2)cc1F` (stereo not drawn) [Example 110, 2-(4-((1-(2-chloro-5-(trifluoromethyl)benzyl)-4-fluoropiperidin-4-yl)methoxy)-5-cyclopropyl-2-fluorobenzamido)-2-cyclobutyl acetic acid]: the pIC50 at hNav1.7 is 6.43; at NaV1.5 (setting [2]) it was 5.00; against human NaV1.7, 5.00.

In the case of `C[C@@H]1[C@@H](C(=O)O)N(C(=O)c2cc(C3CC3)c(OCC3(F)CCN(Cc4cc(C(F)(F)F)ccc4Cl)CC3)cc2F)C[C@@H]1F` [Example 111, (2S,3R,4R)-1-(4-((1-(2-chloro-5-(trifluoromethyl)benzyl)-4-fluoropiperidin-4-yl)methoxy)-5-cyclopropyl-2-fluorobenzoyl)-4-fluoro-3-methylpyrrolidine-2-carboxylic acid], the pIC50 on hNav1.7 is 7.44; at NaV1.5 (setting [2]), 4.85; on human NaV1.7 it was 6.64.

For the compound `O=C(O)[C@@H]1CCCN1C(=O)c1cc(C2CC2)c(OC2CCN(Cc3cc(Cl)cc(Cl)c3)CC2)cc1F` [Example 112, (S)-1-(5-cyclopropyl-4-(1-(3,5-dichlorobenzyl)piperidin-4-yloxy)-2-fluorobenzoyl)pyrrolidine-2-carboxylic acid], the pIC50 on hNav1.7 was 6.28; against NaV1.5 (setting [1]), at most 4.52; at human NaV1.7 it was 5.70.

Regarding `O=C(O)[C@@H]1CCCN1C(=O)c1cc(C2CC2)c(CN2CC(Oc3cc(Cl)cc(Cl)c3)C2)cc1F` [Example 122, (5-cyclopropyl-4-((3-(3,5-dichlorophenoxy)azetidin-1-yl)methyl)-2-fluorobenzoyl)-L-proline], the pIC50 on hNav1.7 was 6.37; against NaV1.5 (setting [1]), at most 4.52; on human NaV1.7, 5.70.

On to `O=C(O)[C@@H]1CC2(CC2)CN1C(=O)c1cc(C2CC2)c(OCC2(F)CCN(Cc3ccc(C(F)(F)F)cc3Cl)CC2)cc1F` [Example 124, (S)-5-(4-((1-(2-chloro-4-(trifluoromethyl)benzyl)-4-fluoropiperidin-4-yl)methoxy)-5-cyclopropyl-2-fluorobenzoyl)-5-azaspiro[2.4]heptane-6-carboxylic acid], for which the pIC50 is 6.40 at hNav1.7, 4.92 on NaV1.5 and 5.82 at human NaV1.7.
